Source: BindingDB's records for patent US12503453 (Dana-Farber Cancer Institute, 2025)

Target: Ubiquitin carboxyl-terminal hydrolase 7 (Homo sapiens, UniProt Q93009)
Test: Ub-AMC Enzymatic and Kinetic Assays
Description: Full length USP7 was tested for its activity in Ubiquitin-AMC assay in presence or absence of inhibitors. USP7 (5 nM) was pre-incubated for 6 hours at room temperature with different concentrations of inhibitors or DMSO as a control in 50 mM HEPES pH 7.5, 0.5 mM EDTA, 11 μM ovalbumin, and 5 mM DTT. Ubiquitin-AMC (Boston Biochem) was then added to a final concentration of 500 nM. The initial rate of the reaction was measured by collecting fluorescence data at one minute intervals over 30-minute period using a Clariostar fluorescence plate reader at excitation and emission wavelength of 345 and 445 nm respectively. The calculated initial rate values were plotted against inhibitor concentrations to determine IC50s. All the experimental data were plotted using Prism GraphPad. All assays for each compound were performed at least twice for each compound.

Sequence of Ubiquitin carboxyl-terminal hydrolase 7 (Q93009 whole entry): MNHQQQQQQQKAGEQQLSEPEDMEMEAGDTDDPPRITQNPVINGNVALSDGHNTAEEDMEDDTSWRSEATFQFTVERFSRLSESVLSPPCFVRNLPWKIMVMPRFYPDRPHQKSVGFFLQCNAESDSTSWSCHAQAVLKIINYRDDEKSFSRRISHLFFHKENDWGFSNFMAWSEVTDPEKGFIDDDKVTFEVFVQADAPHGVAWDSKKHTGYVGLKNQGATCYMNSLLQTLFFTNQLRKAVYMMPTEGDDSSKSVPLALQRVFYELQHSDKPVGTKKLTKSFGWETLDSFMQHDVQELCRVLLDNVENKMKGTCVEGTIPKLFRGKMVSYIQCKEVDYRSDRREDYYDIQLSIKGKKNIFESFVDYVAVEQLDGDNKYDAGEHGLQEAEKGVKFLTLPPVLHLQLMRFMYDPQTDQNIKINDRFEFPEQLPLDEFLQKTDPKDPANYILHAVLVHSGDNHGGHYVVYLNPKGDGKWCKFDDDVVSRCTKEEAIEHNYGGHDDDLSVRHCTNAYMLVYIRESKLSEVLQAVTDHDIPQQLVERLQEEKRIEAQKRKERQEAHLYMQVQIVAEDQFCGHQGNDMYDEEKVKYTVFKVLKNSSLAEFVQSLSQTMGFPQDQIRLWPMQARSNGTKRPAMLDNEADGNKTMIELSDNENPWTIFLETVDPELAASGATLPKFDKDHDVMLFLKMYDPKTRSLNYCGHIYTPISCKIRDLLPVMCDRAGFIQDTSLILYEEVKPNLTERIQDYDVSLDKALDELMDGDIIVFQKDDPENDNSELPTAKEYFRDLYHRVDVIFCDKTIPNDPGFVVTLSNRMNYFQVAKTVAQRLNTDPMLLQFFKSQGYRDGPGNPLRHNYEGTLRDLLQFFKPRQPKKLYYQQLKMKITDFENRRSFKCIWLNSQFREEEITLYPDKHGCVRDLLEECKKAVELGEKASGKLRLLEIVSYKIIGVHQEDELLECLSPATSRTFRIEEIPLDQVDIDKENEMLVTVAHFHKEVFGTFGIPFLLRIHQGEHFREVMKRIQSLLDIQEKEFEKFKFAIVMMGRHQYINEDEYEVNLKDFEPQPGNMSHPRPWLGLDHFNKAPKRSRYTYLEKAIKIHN

SMILES: CN1CCN(CCC(=O)Nc2ccc3c(=O)n(CC4(O)CCN(C(=O)C(CCCNC(=O)C5CCN(C#N)C5)Cc5ccccc5)CC4)cnc3c2)CC1 (stereo unspecified) [US12503453, Compound Table1.19]
- IC50: > 1000 nM
